How the values were obtained:
[1] = test system: CASOB (Sicklepod); experiment: Postemergence herbicidal evaluation; format: in vivo, Cassia obtusifolia; settings: postemergence
In short: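 Seedlings grown about two weeks were sprayed at 40 psi with compound dispersed in 50/50 acetone/water plus 0.5% TWEEN 20, at about 0.0156 to 0.500 kg/ha. Plants were kept in the greenhouse and scored 4–5 weeks later on a 0–9 visual scale against untreated controls.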

[2] = test system: TRZAWR (Wheat, Winter, cv Riband); experiment: Preemergence herbicidal evaluation; format: in vivo, Triticum aestivum; settings: rated 4-5 weeks after treatment
In short: (§1)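 Seeds were mixed with potting soil and planted on about one inch of soil, then sprayed with test compound in aqueous acetone at about 0.0156 to 0.500 kg per hectare. Plants grew under standard greenhouse care and were visually rated 0-9 against untreated controls 4-5 weeks post-treatment.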

[3] = test system: GLXMAW (Soybean, Williams); experiment: Preemergence herbicidal evaluation; format: in vivo, Glycine max, (L.) Merr. cv Williams; settings: rated 4-5 weeks after treatment
In short: as §1

[4] = test system: ORYSAT (Rice, Tebonnet); experiment: Preemergence herbicidal evaluation; format: in vivo, Oryza sativa, (L.) Tebonnet; settings: rated 4-5 weeks after treatment
In short: as §1

[5] = test system: SAGPY (Arrowhead (Pygmaea)); experiment: Preemergence weed control under flooded paddy conditions; format: in vivo, Sagittaria pygmaea; settings: rated 3-4 weeks after treatment
In short: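 Herbicidal effect is scored visually on a 0-9 scale against an untreated control, three to four weeks after compounds are pipetted into the flood water (1.5 to 3 cm deep) over seeds planted in silt loam at 0.5 cm depth. Rates: about 0.0313 to 0.500 kg/ha.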

[6] = rate 0.0156 kg/ha, rating scale 0-9
[7] = rate 0.0313 kg/ha, rating scale 0-9
[8] = rate 0.0625 kg/ha, rating scale 0-9
[9] = rate 0.1250 kg/ha, rating scale 0-9
[10] = rate 0.2500 kg/ha, rating scale 0-9

SMILES: Cn1c(C(F)(F)F)cc(=O)n(-c2cc(N=C3SCC(=O)N3Cc3ccc(F)cc3)c(Cl)cc2F)c1=O [Compound 151, 3-{4-Chloro-2-fluoro-5-{[3-(p-fluorobenzyl)-4-oxo-2-thiazolidinylidene]amino}phenyl}-1-methyl-6-(trifluoromethyl)-2,4(1H,3H)-pyrimidinedione]
- Herbicidal rating CASOB ([1]; rate 0.0156 kg/ha): 2.0
- Herbicidal rating CASOB ([1]; rate 0.0313 kg/ha): 4.0
- Herbicidal rating CASOB ([1]; rate 0.0625 kg/ha): 4.0
- Preemergence herbicidal rating TRZAWR [2, 6]: 2.0
- Preemergence herbicidal rating TRZAWR [2, 7]: 6.0
- Preemergence herbicidal rating TRZAWR [2, 8]: 5.0
- Preemergence herbicidal rating TRZAWR [2, 9]: 8.0
- Preemergence herbicidal rating TRZAWR [2, 10]: 9.0
- Preemergence herbicidal rating GLXMAW [3, 6]: 2.0
- Preemergence herbicidal rating GLXMAW [3, 7]: 5.0
- Preemergence herbicidal rating GLXMAW [3, 8]: 4.0
- Preemergence herbicidal rating GLXMAW [3, 9]: 7.0
- Preemergence herbicidal rating GLXMAW [3, 10]: 7.0
- Preemergence herbicidal rating ORYSAT [4, 6]: 2.0
- Preemergence herbicidal rating ORYSAT [4, 7]: 5.0
- Preemergence herbicidal rating ORYSAT [4, 8]: 5.0
- Preemergence herbicidal rating ORYSAT [4, 9]: 9.0
- Preemergence herbicidal rating ORYSAT [4, 10]: 9.0
- herbicidal effect rating, SAGPY ([5]; 0.0313 kg/ha): 0.0
- herbicidal effect rating, SAGPY ([5]; 0.0625 kg/ha): 2.0
- herbicidal effect rating, SAGPY ([5]; 0.1250 kg/ha): 8.0
- herbicidal effect rating, SAGPY ([5]; 0.2500 kg/ha): 6.0

SMILES: Cn1c(C(F)(F)F)cc(=O)n(-c2cc(N=C3SCC(=O)N3Cc3cccc(Cl)c3)c(Cl)cc2F)c1=O [Compound 136, 3-{4-Chloro-5-{[3-(m-chlorobenzyl)-4-oxo-2-thiazolidinylidene]amino}-2-fluorophenyl}-1-methyl-6-(trifluoromethyl)-2,4(1H,3H)-pyrimidinedione]
- Herbicidal rating CASOB ([1]; rate 0.0156 kg/ha): 1.0
- Herbicidal rating CASOB ([1]; rate 0.0313 kg/ha): 4.0
- Herbicidal rating CASOB ([1]; rate 0.0625 kg/ha): 7.0
- Preemergence herbicidal rating TRZAWR [2, 6]: 0.0
- Preemergence herbicidal rating TRZAWR [2, 7]: 0.0
- Preemergence herbicidal rating TRZAWR [2, 8]: 0.0
- Preemergence herbicidal rating TRZAWR [2, 9]: 1.0
- Preemergence herbicidal rating TRZAWR [2, 10]: 1.0
- Preemergence herbicidal rating GLXMAW [3, 6]: 0.0
- Preemergence herbicidal rating GLXMAW [3, 7]: 0.0
- Preemergence herbicidal rating GLXMAW [3, 8]: 0.0
- Preemergence herbicidal rating GLXMAW [3, 9]: 1.0
- Preemergence herbicidal rating GLXMAW [3, 10]: 2.0
- Preemergence herbicidal rating ORYSAT [4, 6]: 0.0
- Preemergence herbicidal rating ORYSAT [4, 7]: 0.0
- Preemergence herbicidal rating ORYSAT [4, 8]: 0.0
- Preemergence herbicidal rating ORYSAT [4, 9]: 1.0
- Preemergence herbicidal rating ORYSAT [4, 10]: 1.0
- herbicidal effect rating, SAGPY ([5]; 0.0313 kg/ha): 0.0
- herbicidal effect rating, SAGPY ([5]; 0.0625 kg/ha): 0.0
- herbicidal effect rating, SAGPY ([5]; 0.1250 kg/ha): 3.0
- herbicidal effect rating, SAGPY ([5]; 0.2500 kg/ha): 3.0

SMILES: CCN1C(=O)CSC1=Nc1cc(-n2c(=O)cc(C(F)(F)F)n(C)c2=O)c(F)cc1Cl [Compound 159, 3-{4-Chloro-5-[(3-ethyl-4-oxo-2-thiazolidinyl-idene)amino]-2-fluorophenyl}-1-methyl-6-(trifluoromethyl)-2,4(1H,3H)-pyrimidinedione]
- Herbicidal rating CASOB ([1]; rate 0.0156 kg/ha): 0.0
- Herbicidal rating CASOB ([1]; rate 0.0313 kg/ha): 1.0
- Herbicidal rating CASOB ([1]; rate 0.0625 kg/ha): 7.0
- Preemergence herbicidal rating TRZAWR ([2]; 0.0156 kg/ha): 0.0
- Preemergence herbicidal rating TRZAWR ([2]; 0.0313 kg/ha): 0.0
- Preemergence herbicidal rating TRZAWR ([2]; 0.0625 kg/ha): 0.0
- Preemergence herbicidal rating TRZAWR ([2]; 0.1250 kg/ha): 1.0
- Preemergence herbicidal rating TRZAWR ([2]; 0.2500 kg/ha): 3.0
- Preemergence herbicidal rating GLXMAW ([3]; 0.0156 kg/ha): 1.0
- Preemergence herbicidal rating GLXMAW ([3]; 0.0313 kg/ha): 0.0
- Preemergence herbicidal rating GLXMAW ([3]; 0.0625 kg/ha): 1.0
- Preemergence herbicidal rating GLXMAW ([3]; 0.1250 kg/ha): 2.0
- Preemergence herbicidal rating GLXMAW ([3]; 0.2500 kg/ha): 3.0
- Preemergence herbicidal rating ORYSAT ([4]; 0.0156 kg/ha): 0.0
- Preemergence herbicidal rating ORYSAT ([4]; 0.0313 kg/ha): 0.0
- Preemergence herbicidal rating ORYSAT ([4]; 0.0625 kg/ha): 0.0
- Preemergence herbicidal rating ORYSAT ([4]; 0.1250 kg/ha): 1.0
- Preemergence herbicidal rating ORYSAT ([4]; 0.2500 kg/ha): 2.0
- herbicidal effect rating, SAGPY ([5]; 0.0313 kg/ha): 0.0
- herbicidal effect rating, SAGPY ([5]; 0.0625 kg/ha): 3.0
- herbicidal effect rating, SAGPY ([5]; 0.1250 kg/ha): 3.0
- herbicidal effect rating, SAGPY ([5]; 0.2500 kg/ha): 6.0

SMILES: Cn1c(C(F)(F)F)cc(=O)n(-c2cc(N=C3SCC(=O)N3Cc3ccncc3)c(Cl)cc2F)c1=O [Compound 133, 3-{4-Chloro-2-fluoro-5-{[4-oxo-3-(4-pyridylmethyl)-2-thiazolidinylidene]amino}phenyl}-1-methyl-6-(trifluoromethyl)-2,4(1H,3H)-pyrimidinedione]
- Herbicidal rating CASOB ([1]; rate 0.0156 kg/ha): 0.0
- Herbicidal rating CASOB ([1]; rate 0.0313 kg/ha): 1.0
- Herbicidal rating CASOB ([1]; rate 0.0625 kg/ha): 3.0
- Preemergence herbicidal rating TRZAWR [2, 7]: 0.0
- Preemergence herbicidal rating TRZAWR [2, 8]: 0.0
- Preemergence herbicidal rating TRZAWR [2, 9]: 0.0
- Preemergence herbicidal rating TRZAWR [2, 10]: 0.0
- Preemergence herbicidal rating GLXMAW [3, 7]: 0.0
- Preemergence herbicidal rating GLXMAW [3, 8]: 0.0
- Preemergence herbicidal rating GLXMAW [3, 9]: 0.0
- Preemergence herbicidal rating GLXMAW [3, 10]: 0.0
- Preemergence herbicidal rating ORYSAT [4, 7]: 0.0
- Preemergence herbicidal rating ORYSAT [4, 8]: 0.0
- Preemergence herbicidal rating ORYSAT [4, 9]: 0.0
- Preemergence herbicidal rating ORYSAT [4, 10]: 0.0
- herbicidal effect rating, SAGPY ([5]; 0.0313 kg/ha): 0.0
- herbicidal effect rating, SAGPY ([5]; 0.0625 kg/ha): 3.0
- herbicidal effect rating, SAGPY ([5]; 0.1250 kg/ha): 3.0
- herbicidal effect rating, SAGPY ([5]; 0.2500 kg/ha): 3.0

SMILES: CC(C)N1C(=O)CSC1=Nc1cc(-n2c(=O)cc(C(F)(F)F)n(C)c2=O)c(F)cc1Cl [Compound 164, 3-{4-Chloro-2-fluoro-5-[(3-isopropyl-4-oxo-2-thiazolidinylidene)amino]phenyl}-1-methyl-6-(trifluoromethyl)-2,4(1H,3H)-pyrimidinedione]
- Herbicidal rating CASOB ([1]; rate 0.0156 kg/ha): 2.0
- Herbicidal rating CASOB ([1]; rate 0.0313 kg/ha): 2.0
- Herbicidal rating CASOB ([1]; rate 0.0625 kg/ha): 5.0
- Herbicidal rating CASOB ([1]; rate 0.1250 kg/ha): 6.0
- Preemergence herbicidal rating TRZAWR ([2]; 0.0156 kg/ha): 1.0
- Preemergence herbicidal rating TRZAWR ([2]; 0.0313 kg/ha): 1.0
- Preemergence herbicidal rating TRZAWR ([2]; 0.0625 kg/ha): 4.0
- Preemergence herbicidal rating TRZAWR ([2]; 0.1250 kg/ha): 6.0
- Preemergence herbicidal rating TRZAWR ([2]; 0.2500 kg/ha): 7.0
- Preemergence herbicidal rating TRZAWR ([2]; 0.5000 kg/ha): 9.0
- Preemergence herbicidal rating GLXMAW ([3]; 0.0156 kg/ha): 1.0
- Preemergence herbicidal rating GLXMAW ([3]; 0.0313 kg/ha): 2.0
- Preemergence herbicidal rating GLXMAW ([3]; 0.0625 kg/ha): 5.0
- Preemergence herbicidal rating GLXMAW ([3]; 0.1250 kg/ha): 7.0
- Preemergence herbicidal rating GLXMAW ([3]; 0.2500 kg/ha): 7.0
- Preemergence herbicidal rating GLXMAW ([3]; 0.5000 kg/ha): 7.0
- Preemergence herbicidal rating ORYSAT ([4]; 0.0156 kg/ha): 1.0
- Preemergence herbicidal rating ORYSAT ([4]; 0.0313 kg/ha): 1.0
- Preemergence herbicidal rating ORYSAT ([4]; 0.0625 kg/ha): 3.0
- Preemergence herbicidal rating ORYSAT ([4]; 0.1250 kg/ha): 5.0
- Preemergence herbicidal rating ORYSAT ([4]; 0.2500 kg/ha): 7.0
- Preemergence herbicidal rating ORYSAT ([4]; 0.5000 kg/ha): 9.0
- herbicidal effect rating, SAGPY ([5]; 0.0313 kg/ha): 4.0
- herbicidal effect rating, SAGPY ([5]; 0.0625 kg/ha): 4.0
- herbicidal effect rating, SAGPY ([5]; 0.1250 kg/ha): 5.0
- herbicidal effect rating, SAGPY ([5]; 0.2500 kg/ha): 6.0

SMILES: Cn1c(C(F)(F)F)cc(=O)n(-c2cc(N=C3SCC(=O)N3Cc3cc(Cl)cc(Cl)c3)c(Cl)cc2F)c1=O [Compound 150, 3-{4-Chloro-5-{[3-(3,5-dichlorobenzyl)-4-oxo-2-thiazolidinylidene]amino}-2-fluorophenyl}-1-methyl-6-(trifluoromethyl)-2,4(1H,3H)-pyrimidinedione]
- Herbicidal rating CASOB ([1]; rate 0.0156 kg/ha): 1.0
- Herbicidal rating CASOB ([1]; rate 0.0313 kg/ha): 3.0
- Herbicidal rating CASOB ([1]; rate 0.0625 kg/ha): 3.0
- Preemergence herbicidal rating TRZAWR [2, 7]: 0.0
- Preemergence herbicidal rating TRZAWR [2, 8]: 0.0
- Preemergence herbicidal rating TRZAWR [2, 9]: 1.0
- Preemergence herbicidal rating TRZAWR [2, 10]: 1.0
- Preemergence herbicidal rating GLXMAW [3, 7]: 0.0
- Preemergence herbicidal rating GLXMAW [3, 8]: 0.0
- Preemergence herbicidal rating GLXMAW [3, 9]: 0.0
- Preemergence herbicidal rating GLXMAW [3, 10]: 2.0
- Preemergence herbicidal rating ORYSAT [4, 7]: 0.0
- Preemergence herbicidal rating ORYSAT [4, 8]: 1.0
- Preemergence herbicidal rating ORYSAT [4, 9]: 2.0
- Preemergence herbicidal rating ORYSAT [4, 10]: 1.0
- herbicidal effect rating, SAGPY ([5]; 0.0313 kg/ha): 0.0
- herbicidal effect rating, SAGPY ([5]; 0.0625 kg/ha): 2.0
- herbicidal effect rating, SAGPY ([5]; 0.1250 kg/ha): 2.0
- herbicidal effect rating, SAGPY ([5]; 0.2500 kg/ha): 2.0
